From ChEMBL document CHEMBL3621188, “Evaluation of (acyloxy)alkyl ester linkers for antibiotic release from siderophore-antibiotic conjugates” (Bioorg Med Chem Lett, 2015)
In brackets after ≈: the same amount, converted by molar mass.

Key:
Escherichia coli = assay: Antimicrobial activity against Escherichia coli K-12 measured after 19 hrs; type: functional; conditions: K-12, 19 h
[1] = Half life of compound in HEPES buffer measured at pH 7.5 and 30 DegC by HPLC analysis; type: physicochemical
[2] = Stability of compound in HEPES buffer assessed as hydrolysis measured at pH 7.5 and 30 DegC after 9 hrs by HPLC analysis; type: physicochemical; conditions: pH 7.5, 9 h
[3] = Drug degradation in HEPES buffer assessed as decomposition measured at pH 7.5 and 30 DegC after 21 hrs by HPLC analysis; type: physicochemical; conditions: read-out: Drug degradation

Structure (SMILES)	MIC (Escherichia coli) [µM]	half-life [1] [h]	Stability [2]	degraded at 21 h [3] [%]
O=C(O)c1cn(C2CC2)c2cc(N3CCNCC3)c(F)cc2c1=O [CIPROFLOXACIN]	0.1 (≈ 0.0331 µg/mL)			
CNCC(=O)OC(C)OC(=O)N1CCN(c2cc3c(cc2F)c(=O)c(C(=O)O)cn3C2CC2)CC1 (stereo not given)		1.6		
CC(OC(=O)[C@@H](NC(=O)c1cc(O)c(O)c(C(=O)N[C@H]2COC(=O)[C@@H](NC(=O)c3cccc(O)c3O)COC(=O)[C@@H](NC(=O)c3cccc(O)c3O)COC2=O)c1)C(C)C)OC(=O)N1CCN(c2cc3c(cc2F)c(=O)c(C(=O)O)cn3C2CC2)CC1 (stereo not given in full)	1 (≈ 1.21 µg/mL)	9.9	Unstable	
O=C(NCCCCCC(=O)N1CCN(c2cc3c(cc2F)c(=O)c(C(=O)O)cn3C2CC2)CC1)c1cc(O)c(O)c(C(=O)N[C@H]2COC(=O)[C@@H](NC(=O)c3cccc(O)c3O)COC(=O)[C@@H](NC(=O)c3cccc(O)c3O)COC2=O)c1		8.7		
CN[C@H](C(=O)OC(C)OC(=O)N1CCN(c2cc3c(cc2F)c(=O)c(C(=O)O)cn3C2CC2)CC1)C(C)C (stereo not given in full)		2.4		
CC(OC(=O)[C@H](C)NC(=O)c1ccccc1)OC(=O)N1CCN(c2cc3c(cc2F)c(=O)c(C(=O)O)cn3C2CC2)CC1 (stereo not given in full)		> 60		20
CNCC(=O)OCOC(=O)N1CCN(c2cc3c(cc2F)c(=O)c(C(=O)O)cn3C2CC2)CC1		0.35		
CC(OC(=O)[C@H](C)NC(=O)c1cc(O)c(O)c(C(=O)N[C@H]2COC(=O)[C@@H](NC(=O)c3cccc(O)c3O)COC(=O)[C@@H](NC(=O)c3cccc(O)c3O)COC2=O)c1)OC(=O)N1CCN(c2cc3c(cc2F)c(=O)c(C(=O)O)cn3C2CC2)CC1 (stereo not given in full)	1 (≈ 1.19 µg/mL)	8.1	Unstable	
CC(OC(=O)[C@@H](NC(=O)c1ccccc1)C(C)C)OC(=O)N1CCN(c2cc3c(cc2F)c(=O)c(C(=O)O)cn3C2CC2)CC1 (stereo not given in full)		> 130		10
